Results published in patent US7250410B2, “Cyclic nucleotide phosphodiesterase inhibitors, preparation and uses thereof” (Via Pharmaceuticals, Inc., priority 2001, dated 2007).
“And” between values parts separate entries of the source, which are not always exact repeats. Equal values may be shown once.

System: PDE4
Experiment: Inhibition of PDE4, radioenzymatic phosphodiesterase assay
Type: biochemical, bovine
Conditions: for PDE4 percentage inhibition at 10 μM: compound at 10 μM; for IC50: 1 μM cyclic AMP
Method: A 3 g segment of bovine aortic media cut into pieces with scissors was homogenized with an ultra-turrax then a potter glass/glass homogenizer in 7 volumes by weight of buffer A containing a protease inhibitor cocktail (20 mM Tris-HCl, 0.25 M saccharose, 2 mM magnesium acetate, 1 mM dithiothreitol, 5 mM EGTA, 2000 U/ml aprotinin, 10 mg/l leupeptin and 10 mg/l soya trypsic inhibitor). The homogenizate was centrifuged at 105,000 g for 1 hour. […] The column was washed until there was no detectable absorption at 280 nm, then eluted with a linear gradient of NaCl (0–0.5 M) in buffer B. 3-ml fractions were collected and enzyme activity was determined under the conditions described hereinafter to localize the different enzymes PDE1, PDE3, PDE4 and PDE5, which were aliquoted and frozen at −80° C.
The nucleoside formed was separated from the nucleotides by anion exchange chromatography. Nucleoside radioactivity was determined by liquid scintillation counting.

CCCN1N=C(c2ccccc2)c2cc(OC)c(OC)cc2CC1=O [IIIaf, 7,8-dimethoxy-1-phenyl-3-n-propyl-3,5-dihydro-4H-2,3-benzodiazepin-4-one]
PDE4 percentage inhibition at 10 μM (Table 1, formula (III)): 30%

CCN1C(=O)C(Cc2cc(Br)cc(Br)c2)N=C(c2ccccc2)c2cc(OC)c(OC)cc21 (centres unmarked) [IIbx, 3-(3,5-dibromobenzyl)-7,8-dimethoxy-1-ethyl-5-phenyl-1,3-dihydro-2H-1,4-benzodiazepin-2-one]
PDE4 percentage inhibition at 10 μM (Table 3, formula (II)): 18%

COc1ccc(-c2ccc(C3=NN(C)C(=O)Cc4cc(OC)c(OC)cc43)cc2)cc1 [IIIao, 7,8-dimethoxy-1-[4-(4-methoxyphenyl)phenyl]-3-methyl-3,5-dihydro-4H-2,3-benzodiazepin-4-one]
IC50 (Table 1, formula (III)): 1.7 µM

COc1ccc2c(c1)C(c1ccccc1)=NCC(=O)N2C [IIdl, 7-methoxy-1-methyl-5-phenyl-1,3-dihydro-2H-1,4-benzodiazepin-2-one]
PDE4 percentage inhibition at 10 μM (Table 3, formula (II)): 34.6%

CCOc1cc2c(cc1OCC)N(CC)C(=O)C(Cc1ccccc1)N=C2c1ccccc1 (centres unmarked) [IIcv, 3-benzyl-7,8-diethoxy-1-ethyl-5-phenyl-1,3-dihydro-2H-1,4-benzodiazepin-2-one]
IC50 (Table 3, formula (II)): 3.1 µM

CCCCCC#Cc1ccc(C2=NN(C)C(=O)Cc3cc(OC)c(OC)cc32)cc1 [IIIax, 1-[4-(heptyn-1-yl)phenyl]-7,8-dimethoxy-3-methyl-3,5-dihydro-4H-2,3-benzodiazepin-4-one]
IC50 (Table 1, formula (III)): 7.8 µM

COc1cccc(C2=NCC(=O)N(C)c3cc(OC)c(OC)cc32)c1 [IIal, 7,8-dimethoxy-5-(3-methoxyphenyl)-1-methyl-1,3-dihydro-1,4-benzodiazepin-2-one]
IC50 (Table 3, formula (II)): 10 µM

COc1cc2c(cc1OC)C(c1ccccc1)=N[C@@H](Cc1ccccc1)C(=O)N2 [XXIIau, (S)-3-benzyl-7,8-dimethoxy-5-phenyl-1,3-dihydro-2H-1,4-benzodiazepin-2-one]
PDE4 percentage inhibition at 10 μM (Table 2, formula (XXII)): 42.6%

CCN1C(=O)CN=C(c2ccc(CCc3ccccc3)cc2)c2cc(OC)c(OC)cc21 [IIbu, 1-ethyl-7,8-dimethoxy-5-[4-(2-phenylethyl)phenyl]-1,3-dihydro-2H-1,4-benzodiazepin-2-one]
IC50 (Table 3, formula (II)): 12.4 µM and 18.7 µM

CCOC(=O)CN1C(=O)CN=C(c2ccccc2)c2cc(OCC)c(OCC)cc21 [IIbi, ethyl (7,8-diethoxy-2-oxo-5-phenyl-2,3-dihydro-1H-1,4-benzodiazepin-1-yl)acetate]
PDE4 percentage inhibition at 10 μM (Table 3, formula (II)): 23.1%

CCN1C(=O)C(Cc2ccccc2Cl)N=C(c2ccccc2)c2cc(OC)c(OC)cc21 (centres unmarked) [IIcy, 3-(2-chlorobenzyl)-1-ethyl-7,8-dimethoxy-5-phenyl-1,3-dihydro-2H-1,4-benzodiazepin-2-one]
IC50 (Table 3, formula (II)): 2.8 µM

CCOc1cc2c(cc1OC)C(c1ccccc1)=NC(c1ccccc1)C(=O)N2CC (centres unmarked) [IIdk, 3,5-diphenyl-8-ethoxy-1-ethyl-7-methoxy-1,3-dihydro-2H-1,4-benzodiazepin-2-one]
IC50 (Table 3, formula (II)): 1.1 µM

CCN1C(=O)C(C/C=C/c2ccccc2)N=C(c2ccccc2)c2cc(OC)c(OC)cc21 (centres unmarked) [IIbz, 7,8-dimethoxy-1-ethyl-3-(E-3-phenylpropen-2yl)-5-phenyl-1,3-dihydro-2H-1,4-benzodiazepin-2-one]
PDE4 percentage inhibition at 10 μM (Table 3, formula (II)): 42.3%

CCN1C(=O)C(Cc2ccccc2C#N)N=C(c2ccccc2)c2cc(OC)c(OC)cc21 (centres unmarked) [IIce, 3-(2-cyanobenzyl)-7,8-dimethoxy-1-ethyl-5-phenyl-1,3-dihydro-2H-1,4-benzodiazepin-2-one]
IC50 (Table 3, formula (II)): 0.88 µM and 1.4 µM

COc1cc2c(cc1OC)N(C)C(=O)CN=C2c1ccccc1C [IIau, 7,8-dimethoxy-1-methyl-5-(2-methylphenyl)-1,3-dihydro-1,4-benzodiazepin-2-one]
PDE4 percentage inhibition at 10 μM (Table 3, formula (II)): 18.5%

COc1cc2c(cc1OC)C(c1ccc(-c3cccs3)cc1)=NN(C)C(=O)C2 [IIIau, 7,8-dimethoxy-3-methyl-1-[4-(2-thienyl)phenyl]-3,5-dihydro-4H-2,3-benzodiazepin-4-one]
IC50 (Table 1, formula (III)): 3.8 µM

COc1cc2c(cc1OC)C(c1ccc(Br)cc1)=NCC(=O)N2 [XXIIaf, 5-(4-bromophenyl)-7,8-dimethoxy-1,3-dihydro-2H-1,4-benzodiazepin-2-one]
IC50 (Table 2, formula (XXII)): 15 µM

CCN1C(=O)C(Cc2ccccc2C)N=C(c2ccccc2)c2cc(OC)c(OC)cc21 (centres unmarked) [IIcz, 1-ethyl-7,8-dimethoxy-3-(2-methylbenzyl)-5-phenyl-1,3-dihydro-2H-1,4-benzodiazepin-2-one]
IC50 (Table 3, formula (II)): 4.4 µM

CCCCCCCCCCCCN1N=C(c2ccccc2)c2cc(OC)c(OC)cc2CC1=O [IIIad, 3-n-dodecyl-7,8-dimethoxy-1-phenyl-3,5-dihydro-4H-2,3-benzodiazepin-4-one]
PDE4 percentage inhibition at 10 μM (Table 1, formula (III)): 3.9%

COc1cc2c(cc1OC)C(c1cccc(Br)c1)=NCC(=O)N2 [XXIIak, 5-(3-bromophenyl)-7,8-dimethoxy-1,3-dihydro-2H-1,4-benzodiazepin-2-one]
IC50 (Table 2, formula (XXII)): 13 µM

COc1cc2c(cc1OC)C(c1ccccc1)=N[C@@H](CCCCNC(=N)N)C(=O)N2.O=C(O)C(F)(F)F.O=C(O)C(F)(F)F [XXIIay, N-[4-(7,8-dimethoxy-2-oxo-5-phenyl-2,3-dihydro-1H-1,4-benzodiazepin-3-yl)butyl]guanidinium (S)-bis trifluoroacetate]
PDE4 percentage inhibition at 10 μM (Table 2, formula (XXII)): 19.6%

CCN1C(=O)C(C2(O)CCN(Cc3ccccc3)CC2)N=C(c2ccccc2)c2cc(OC)c(OC)cc21 (centres unmarked) [IIcl, 3-(1-benzyl-4-hydroxypiperidin-4-yl)-1-ethyl-7,8-dimethoxy-5-phenyl-1,3-dihydro-2H-1,4-benzodiazepin-2-one]
PDE4 percentage inhibition at 10 μM (Table 3, formula (II)): 4.3%

CCN1C(=O)C(Cc2cccc(-c3ccccc3)c2)N=C(c2ccccc2)c2cc(OC)c(OC)cc21 (centres unmarked) [IIcu, 3-(1,1′-biphenyl-3-ylmethyl)-1-ethyl-7,8-dimethoxy-5-phenyl-1,3-dihydro-2H-1,4-benzodiazepin-2-one]
IC50 (Table 3, formula (II)): 4.8 µM

COc1ccc2c(c1)C(c1cccc(C(F)(F)F)c1)=NCC(=O)N2 [XXIIae, 7-methoxy-5-[3-(trifluoromethyl)phenyl]-1,3-dihydro-2H-1,4-benzodiazepin-2-one]
PDE4 percentage inhibition at 10 μM (Table 2, formula (XXII)): 21%

COc1cc2c(cc1OC)C(c1ccc(-c3ccccc3C)cc1)=NN(C)C(=O)C2 [IIIaq, 7,8-dimethoxy-3-methyl-1-[4-(2-methylphenyl)phenyl]-3,5-dihydro-4H-2,3-benzodiazepin-4-one]
IC50 (Table 1, formula (III)): 1.9 µM

COc1cc2c(cc1OC)C(c1ccc(-c3ccc(C(C)=O)cc3)cc1)=NN(C)C(=O)C2 [IIIal, 1-[4-(4-acetylphenyl)phenyl]-7,8-dimethoxy-3-methyl-3,5-dihydro-4H-2,3-benzodiazepin-4-one]
IC50 (Table 1, formula (III)): 2.4 µM

CCN1C(=O)C(CC(N)=O)N=C(c2ccccc2)c2cc(OC)c(OC)cc21 (centres unmarked) [IIcw, 2-(1-ethyl-7,8-dimethoxy-2-oxo-5-phenyl-2,3-dihydro-1H-1,4-benzodiazepin-3-yl)acetamide]
PDE4 percentage inhibition at 10 μM (Table 3, formula (II)): 9.4%

CCN1C(=O)C(Cc2cccc(C(N)=O)c2)N=C(c2ccccc2)c2cc(OC)c(OC)cc21 (centres unmarked) [IIcs, 3-[(1-ethyl-7,8-dimethoxy-2-oxo-5-phenyl-2,3-dihydro-1H-1,4-benzodiazepin-3-yl)methyl]benzamide]
IC50 (Table 3, formula (II)): 1.25 µM

CCN1C(=O)CN=C(c2cccc(Br)c2)c2cc(OC)c(OC)cc21 [IIbm, 5-(3-bromophenyl)-1-ethyl-7,8-dimethoxy-1,3-dihydro-2H-1,4-benzodiazepin-2-one]
IC50 (Table 3, formula (II)): 7.3 µM

COc1cc2c(cc1OC)N(C)C(=O)CN=C2c1cccc(-c2ccccc2)c1 [IIay, 5-(1,1′-biphenyl-3-yl)-7,8-dimethoxy-1-methyl-1,3-dihydro-2H-1,4-benzodiazepin-2-one]
IC50 (Table 3, formula (II)): 6.6 µM

COc1ccc2cc(C3=NCC(=O)N(C)c4cc(OC)c(OC)cc43)ccc2c1 [IIap, 7,8-dimethoxy-5-(6-methoxy-2-naphthyl)-1-methyl-1,3-dihydro-1,4-benzodiazepin-2-one]
PDE4 percentage inhibition at 10 μM (Table 3, formula (II)): 18%

COc1cc2c(cc1OC)C(c1ccccc1)=NC(C)C(=O)N2 (centres unmarked) [XXIIaq, 7,8-dimethoxy-3-methyl-5-phenyl-1,3-dihydro-2H-1,4-benzodiazepin-2-one]
PDE4 percentage inhibition at 10 μM (Table 2, formula (XXII)): 26.2%

CCOc1cc2c(cc1OC)C(c1ccccc1)=NC(Cc1ccccc1)C(=O)N2 (centres unmarked) [XXIIbb, 3-benzyl-8-ethoxy-7-methoxy-5-phenyl-1,3-dihydro-2H-1,4-benzodiazepin-2-one]
IC50 (Table 2, formula (XXII)): 15 µM

COc1cc2c(cc1OC)N(C)C(=O)CN=C2/C=C/c1ccccc1 [IIas, 7,8-dimethoxy-1-methyl-5-[(E)-2-phenylethenyl]-1,3-dihydro-2H-1,4-benzodiazepin-2-one]
IC50 (Table 3, formula (II)): 8.4 µM

COc1cc2c(cc1OC)C(c1ccc(Br)cc1)=NN(C)C(=O)C2 [IIIan, 1-(4-bromophenyl)-7,8-dimethoxy-3-methyl-3,5-dihydro-4H-2,3-benzodiazepin-4-one]
IC50 (Table 1, formula (III)): 1.8 µM

COc1cc2c(cc1OC)N(C)C(=O)CN=C2c1cc2ccccc2s1 [IIac, 5-(2-benzo[b]thienyl)-7,8-dimethoxy-1-methyl-1,3-dihydro-1,4-benzodiazepin-2-one]
IC50 (Table 3, formula (II)): 2.3 µM

CCN1C(=O)C(Cc2cccc(C#N)c2)N=C(c2ccccc2)c2cc(OC)c(OC)cc21 (centres unmarked) [IIcp, 3-[(1-ethyl-7,8-dimethoxy-2-oxo-5-phenyl-2,3-dihydro-1H-1,4-benzodiazepin-3-yl)methyl]benzonitrile]
IC50 (Table 3, formula (II)): 9.2 µM

C#CCC1N=C(c2ccccc2)c2cc(OC)c(OC)cc2N(CC)C1=O (centres unmarked) [IIbt, 1-ethyl-7,8-dimethoxy-5-phenyl-3-prop-2-ynyl-1,3-dihydro-2H-1,4-benzodiazepin-2-one]
PDE4 percentage inhibition at 10 μM (Table 3, formula (II)): 38.4%
